Source: publication PMC3653934, “Identification of Adiponectin Receptor Agonist Utilizing a Fluorescence Polarization Based High Throughput Assay” (PLoS ONE, 2013)
Read-outs that look alike come from different tables or passages of the source.

Experiments:
AdipoR2 = molecular target: T1, AdipoR2 (UniProt Q86V24); assay: Competitive FP assay, displacement of probe 1 from AdipoR2; assay type: binding, human; settings: 2 µM receptor, 100 nM probe 1, 30 min, 25°C
T1 sequence (Q86V24 1-386): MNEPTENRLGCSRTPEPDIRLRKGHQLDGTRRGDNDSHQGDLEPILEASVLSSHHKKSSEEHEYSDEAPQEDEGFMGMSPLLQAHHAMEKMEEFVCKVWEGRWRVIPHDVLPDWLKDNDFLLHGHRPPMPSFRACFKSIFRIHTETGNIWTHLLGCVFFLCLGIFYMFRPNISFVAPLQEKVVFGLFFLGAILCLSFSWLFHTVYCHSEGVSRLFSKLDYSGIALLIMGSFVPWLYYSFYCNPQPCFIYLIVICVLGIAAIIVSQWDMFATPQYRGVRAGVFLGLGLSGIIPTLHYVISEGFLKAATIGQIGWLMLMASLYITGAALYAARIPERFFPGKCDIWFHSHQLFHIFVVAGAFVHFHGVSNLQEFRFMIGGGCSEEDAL
Procedure: Unlabeled short peptide 3 was titrated against the FITC-labeled peptide and adiponectin receptor mixture. Plates were incubated at room temperature for up to 3 hours or 30 min at different temperatures. FP values were taken and IC50 values were calculated.
Master mixtures containing fluorescein-labeled probe 1 and adiponectin receptor (AdipoR1 or AdiopR2, 2 µM and probe 1 at 100 nM) in a reaction volume of 19 µl were prepared and loaded to plates. The library compounds (10 µM –0.078 µM, half dilutions) were prepared separately and transferred into the assay plates. The first and last columns of each plate were used as positive and negative control wells. Wells containing the drug only were used as controls to detect auto-fluorescence of the compounds in the total fluorescence assay. After subtraction of the background signal, data was processed and the IC50 values were determined by non-linear least square fitting using SigmaPlot 11.0.
Given that the present study is a screening study, peptide 3 was chosen as the positive control for cost-efficiency purposes.
To optimize the FP assay properly, it was necessary to assess the stability of the FP assay. The conditions for the FP assay were established by testing various parameters including incubation temperature, time, TF values, ΔmP values, and DMSO tolerance. […] In summary, the competitive FP binding assay conditions ideal for identifying adiponectin receptor agonists are: i) 2 µM adiponectin receptor, ii) 100 nM probe 1, iii) 5% final DMSO concentration (v/v), and iv) incubation for 30 min at 25°C before reading the plate.
A pilot screen against the natural product library of 10,000 compounds described above was performed at screening concentrations of 10 µM to 0.078 µM (half serial dilutions) in 5% DMSO (v/v). Controls present in each assay plate consisted of 5% DMSO (negative control) or peptide 3 (positive control).
We screened a library of 10,000 natural compounds for adiponectin agonists. […] 46 compounds that could generate IC50 curves were identified as initial hits.

[1] = system: AMPK phosphorylation (AdipoR1 signaling) in MDA-MB-231 cells; assay: Western blot of AMPK phosphorylation in MDA-MB-231 cells; assay type: cell-based, human; settings: MDA-MB-231 cells treated at IC50 concentration for 6 h
Procedure: Cells were grown to 80% confluence, harvested and aliquoted into 100 mm dishes in serum free media. Cells were allowed to attach overnight and then the serum free media was removed and then cells were washed in PBS twice. Different doses of compounds were prepared in the normal media and added to different dishes for an additional 6 h. Cells were washed 3 times with ice-cold PBS and cell lysates were prepared by scraping cells into lysis buffer A (RIPA buffer, 2 mM dithiothreitol […], 1×Halt protease inhibitor cocktail (Thermo scientific), and 1×Halt phosphatase inhibitor cocktail (Thermo scientific)). The cells were allowed to swell on ice (5 min), after which the homogenate was centrifuged. The supernatants were transferred to fresh tubes and protein concentrations were determined using the Bio-Rad protein assay (Bio-Rad Laboratories, Inc.) per manufacturer’s instructions. Aliquots of the cell lysates were stored at −80°C.
Equal amounts of total protein (50 µg) were subjected to electrophoresis (10% tris-HCl, 1.0 mm gels) and transferred to nitrocellulose membranes. Membranes were blocked in TBS containing 0.05% Tween 20 (TBST) and 5% nonfat milk or 5% BSA for 1 hour at room temperature. Appropriately diluted primary antibodies were incubated in TBST/5% nonfat milk or TBST/5% BSA for 2 h at room temperature or overnight at 4 °C. Membranes were washed in TBST three times for 15 min each. Appropriately diluted secondary antibodies were incubated in superblock blocking buffers (Thermo Scientific) for 1 h at room temperature. Membranes were washed in TBST three times for 15 min. Proteins were detected by Amersham™ ECL plus western blotting detection system (GE healthcare). The following antibodies were used: anti-AdipoR1 M18, anti-AdipoR2 C12 (Santa Cruz Biotechnology, Santa Cruz, CA), anti-p-AMPKα(T172), anti-AMPKα, and anti-β-actin (Cell Signaling, Danvers, MA).
It is well established that adiponectin activates AMPK and p38 MAPK through AdipoR1 or PPARα through AdipoR2 to mediate its downstream signaling cascades, [9], [12], [14]. […] The levels of phosphorylation of AMPK and phosphorylation of PPARα were examined and the relative expression levels of the phospho-protein to the total expression of protein levels were quantified using ImageJ software (NIH) ( Fig. 3 ).
Figure 3 Effects of hit compounds on adiponectin receptor signaling pathways. […] A total 50 µg of cell lysate was loaded to each lane. Western blot was performed follow the protocol in materials and methods section.

MCF-7 cells = assay: Cell viability assay (CellTiter-Blue) in MCF-7 cells; assay type: cell-based; settings: Homo sapiens, MCF7; 72 h, 20 µM to 1.2 nM; read-out: IC50 (µM) MCF-7 cells, cell viability
Procedure: All cell lines were obtained from the American Type Culture Collection (ATCC). MCF-7 and MDA-MB-231 cells were maintained in DMEM containing 10% fetal bovine serum and supplied with 1% penicillin/streptomycin. All cells were maintained in a 5% CO2 atmosphere at 37°C.
The effects of the lead compounds on cell proliferation were tested in MCF-7 and MDA-MB-231 cells. Cells were grown to 80% confluence, harvested and aliquoted into 384-well plates in a total volume of 45 µl per well. The outer wells were inoculated with sterile water to minimize evaporation from the sample wells. Cells were allowed to attach overnight and 5 µl culture media containing either vehicles or drug were added. Cell proliferation was evaluated using CellTilter-Blue reagent (Promega, China) according to manufacturer’s instructions after 72-h incubation. Fluorescence was measured with an excitation at 530 nm and emission at 590 nm. After background subtraction, cell viability values were normalized to vehicle controls and expressed as percentage of the mean of the relative vehicle controls.
To further confirm the agonistic activity of hit compounds, MDA-MB-231 and MCF-7 cells were treated with different concentrations of g-Ad or drug (20 µM to 1.2 nM) for 72 hours and cell viability was measured. Thus, four compounds (arctiin, (-)-arctigenin, matairesinol and gramine) that show agonistic activity against adiponectin receptor 1 and four compounds (deoxyschizandrin, taxifoliol, syringing and parthenolide) that show agonistic activity against adiponectin receptor 2 were identified.

[2] = primary screen, read-out: IC50 vs AdipoR2 (µM) Primary screen
[3] = validation, read-out: IC50 vs AdipoR2 (µM) Validated

Row | Compound | IC50 (AdipoR2; [2]) [µM] | IC50 (AdipoR2; [3]) [µM] | IC50 (MCF-7 cells) [µM] | Effect on AMPK phosphorylation [1]
1 | CN(C)Cc1c[nH]c2ccccc12 [Compound 9, Gramine] | 3.6 | 3.2 ± 0.2 | 0.1 ± 0.1 | elevated
2 | COc1cc(C[C@H]2COC(=O)[C@@H]2Cc2ccc(O)c(OC)c2)ccc1O [Compound 3, Matairesinol] | > 5 | > 5 | > 10 | elevated
3 | COc1ccc(C[C@H]2COC(=O)[C@@H]2Cc2ccc(O[C@@H]3O[C@H](CO)[C@@H](O)[C@H](O)[C@H]3O)c(OC)c2)cc1OC [Compound 1, Arctiin] | > 5 | > 5 | > 10 | elevated

The next lines start with results.

Row | IC50 (AdipoR2; [2]) [µM] | IC50 (AdipoR2; [3]) [µM] | IC50 (MCF-7 cells) [µM] | Compound | Effect on AMPK phosphorylation [1]
4 | 3.5 | 3.2 ± 0.7 | 5.5 ± 0.6 | COc1cc2c(c(OC)c1OC)-c1c(cc(OC)c(OC)c1OC)C[C@H](C)[C@H](C)C2 [Compound 4, Deoxyschizandrin] | decreased
5 | 1.5 | 1.2 ± 0.1 | 2.5 ± 0.4 | C=C1C(=O)O[C@H]2[C@H]1CC/C(C)=C/CC[C@@]1(C)O[C@@H]21 [Compound 7, Parthenolide] | no effect
